Reference: patent US9540355B2, “Irciniastatin analogues” (priority 2013, dated 2017)

Tests used:
[1] = test system: A2058; experiment: Cell growth inhibition assay (CellTiter-Glo); type: cell-based, human; conditions: for IC50: Homo sapiens, 96 h, 4 days incubation; for Selectivity vs. IMR-90, A2058: ratio IC50[IMR-90]:IC50[tumor cell line]
Experimental: (§1) Cell Culture and Cell Growth Inhibition Assay.
(§2) The chosen cell lines are all human cancer cell lines except for the 4T1 murine breast cancer line, representing a wide variety of cancer types including breast (MDA-MB-453), kidney (A498), lung (H1975), pancreatic (PANC-1) and endometrial cancer (AN3CA, HEC-1A, and RL95-2), glioblastoma (U251 and U-87MG), melanoma (A2058 and LOXIMVI) and uterine sarcoma (MES-SA). All the cancer cell lines can be obtained from the American Type Culture Collection (ATCC, Manassas, Va., USA) with the exception of U251 which can be provided by the National Cancer Institute Tumor Repository (Frederick, Md.) and is cultured in the standard tissue culture media appropriate for each cell line. All the culture media are supplemented with 10% fetal bovine serum (FBS), 100 I.U./mL penicillin and 100 μg/mL streptomycin. For the cell growth inhibition assay, the cells are seeded in 96-well tissue culture plates at 500-3000 cells/well (seeding density empirically adjusted for each cell line based on growth rate optimization). The cells are allowed to attach for a minimum of 5 h prior to compound administration. The cells are incubated for a period of 4 days after compound addition. Following the incubation period, CellTiter-Glo reagent (Promega, Madison, Wis., USA) is added to all the wells to assess cell proliferation/viability. Luminescence is measured using an Envision microplate reader (Perkin Elmer, Waltham, Mass., USA). The IC50 values were calculated as the concentration which inhibited cell growth to 50% of DMSO control treated cell populations.

[2] = test system: H522-T1; experiment: Cell growth inhibition assay (CellTiter-Glo); type: cell-based, human; conditions: for IC50: Homo sapiens, 96 h, 4 days incubation; for Selectivity vs. IMR-90, H522-T1: ratio IC50[IMR-90]:IC50[tumor cell line]
Experimental: as §1, §2

[3] = test system: IMR-90 human fibroblast cells; experiment: IMR-90 cytotoxicity assay; type: cell-based; conditions: IMR-90, 72 h, read-out: IC50 (nM) Quiescent IMP-90
Excerpt: IMR-90 Cytotoxicity Assay.
To evaluate the effect of compounds of the invention on non-proliferating normal cells, an in vitro cytotoxicity assay developed to distinguish between true antiproliferative activity and general cellular cytotoxicity unrelated to proliferation was used. Rudolph-Owen L A, Salvato K, Cheng C, Wu J, Towle M J and Littlefield B A: A 96-well plate cell-based assay to quantify undesired cytotoxic effects against quiescent non-dividing cells. Proc Amer Assoc Cancer Res 45: 264-265, 2004. In brief, IMR-90 human fibroblast cells, obtained from ATCC, were grown for 4 days to confluency in MEM containing 10% FBS and supplemented with L-glutamine, penicillin/streptomycin. After washing, the medium was replaced with complete MEM containing 0.1% FBS and the cells were cultured for 3 additional days to achieve complete quiescence. A compound of the invention or vehicle control was then added in the continued presence of 0.1% FBS, followed by incubation for 3 days at 37° C. Cell viability was assessed by the measurement of cellular ATPlevels using CellTiter-Glo reagent (Promega).

[4] = test system: translation; conditions: in vitro assay; mean ± standard deviation; read-out: translation inhibition (EC50 nM) in vitro assay; cited from earlier work
[5] = test system: Hela; conditions: cell-based assay, read-out: translation inhibition (EC50 nM) cell-based assay Hela; cited from earlier work
[6] = test system: SK-MEL-S; conditions: cell-based assay, read-out: translation inhibition (EC50 nM) cell-based assay SK-MEL-S; cited from earlier work
[7] = test system: Hela; conditions: read-out: cytotoxicity (IC50 nM) Hela, CellTiter-Glo, mean ± standard deviation; cited from earlier work
[8] = test system: SK-MEL-S; conditions: read-out: cytotoxicity (IC50 nM) SK-MEL-S, CellTiter-Glo, mean ± standard deviation; cited from earlier work
[9] = test system: HCT-116; experiment: Cell growth inhibition assay (CellTiter-Glo); type: cell-based, human; conditions: for IC50: Homo sapiens, 96 h, 4 days incubation; for Selectivity vs. IMR-90, HCT-116: ratio IC50[IMR-90]:IC50[tumor cell line]
Experimental: as §1, §2

[10] = test system: BXPC-3; conditions: pancreas BXPC-3; cited from earlier work
[11] = test system: MCF-7; conditions: breast MCF-7; cited from earlier work
[12] = test system: SF-268; conditions: CNS SF-268; cited from earlier work
[13] = test system: NCI-H460; conditions: lung NCI-H460; cited from earlier work
[14] = test system: KM20L2; conditions: colon KM20L2; cited from earlier work
[15] = test system: DU-145; conditions: prostate DU-145; cited from earlier work
[16] = test system: P388 murine lymphocytic leukemia cell line; conditions: cited from earlier work
[17] = test system: ACHN; conditions: kidney; cited from earlier work
[18] = test system: DU145; conditions: DU145, prostate; cited from earlier work
[19] = test system: H226; conditions: H226, lung; cited from earlier work
[20] = test system: HOP62; conditions: HOP62, lung; cited from earlier work
[21] = test system: MB231; conditions: MB231, breast; cited from earlier work
[22] = test system: MKN45; conditions: MKN45, gastric; cited from earlier work
[23] = test system: PC3; conditions: PC3, prostate; cited from earlier work
[24] = test system: SW620; conditions: SW620, colon; cited from earlier work
[25] = test system: NHDF; conditions: normal; cited from earlier work

Compound	IC50 [1] [nM]	Selectivity vs. IMR-90, A2058 [1]	IC50 [2] [nM]	Selectivity vs. IMR-90, H522-T1 [2]	IC50 [3] [nM]	EC50 [4] [nM]	EC50 [5] [nM]	EC50 [6] [nM]	IC50 [7] [nM]	IC50 [8] [nM]	also measured
C=C(C)C[C@H](OC)[C@H](O)C(=O)N[C@@H](OC)[C@@H]1C/C(=N/OC)C(C)(C)[C@@H](C[C@H](O)[C@@H](C)[C@H]2Cc3c(C)c(O)cc(O)c3C(=O)O2)O1 (stereo in doubt) [C(11)-O-Methyloxime-Irciniastatin B]	0.5	92	0.8	58	46	–	–	–	–	–	–
C=C(C)C[C@H](OC)[C@H](O)C(=O)N[C@@H](OC)[C@@H]1C[C@@H](O)C(C)(C)[C@@H](C[C@H](O)[C@@H](C)C2Cc3c(C)c(O)cc(O)c3C(=O)O2)O1 (stereo partly shown) [1a]	–	–	–	–	–	28 ± 7	22 ± 1.4	33 ± 10	0.64 ± 0.14	0.27 ± 0.04	–
C=C(C)C[C@H](OC)[C@H](O)C(=O)N[C@@H](OC)[C@@H]1CC(=C)C(C)(C)[C@@H](C[C@H](O)[C@@H](C)[C@H]2Cc3c(C)c(O)cc(O)c3C(=O)O2)O1 [C(11)-Exomethylene-Irciniastatin B]	0.7	70	1.6	31	49	–	–	–	–	–	IC50 [9]: 1 nM; Selectivity vs. IMR-90, HCT-116 [9]: 49
C=C(C)C[C@H](OC)[C@H](O)C(=O)N[C@@H](OC)[C@@H]1C[C@@H](OC(C)=O)C(C)(C)[C@@H](C[C@H](O)[C@@H](C)[C@H]2Cc3c(C)c(O)cc(O)c3C(=O)O2)O1 [C(11)-OAc-Irciniastatin A]	0.4	68	0.7	39	27	–	–	–	–	–	IC50 [9]: 2 nM; Selectivity vs. IMR-90, HCT-116 [9]: 14
C=C(C)C[C@H](OC)[C@H](O)C(=O)N[C@@H](OC)[C@@H]1C[C@@H](OC(=O)c2ccccc2)C(C)(C)[C@@H](C[C@H](O)[C@@H](C)[C@H]2Cc3c(C)c(O)cc(O)c3C(=O)O2)O1 [C(11)-Obz-Irciniastatin A, C(11)-OBz-Irciniastatin A]	2.7	30	5.4	15	81	–	–	–	–	–	–
C=C(C)C[C@H](OC)[C@H](O)C(=O)N[C@@H](OC)[C@@H]1CC(=O)C(C)(C)[C@@H](C[C@H](O)[C@@H](C)[C@H]2Cc3c(C)c(O)cc(O)c3C(=O)O2)O1 [Irciniastatin B, (−)-Irciniastatin B]	0.5	114	0.8	71	57	–	–	–	–	–	IC50 [9]: 3 nM; Selectivity vs. IMR-90, HCT-116 [9]: 19; Growth Inhibition of Cancer Cell Lines (GI50) [10]: 0.73 ng/mL; Growth Inhibition of Cancer Cell Lines (GI50) [11]: 0.5 ng/mL; Growth Inhibition of Cancer Cell Lines (GI50) [12]: 0.66 ng/mL; Growth Inhibition of Cancer Cell Lines (GI50) [13]: 1.2 ng/mL; Growth Inhibition of Cancer Cell Lines (GI50) [14]: 2.1 ng/mL; Growth Inhibition of Cancer Cell Lines (GI50) [15]: 1.6 ng/mL; Growth Inhibition of Cancer Cell Lines (GI50) [16]: 6 ng/mL
C=C(C)C[C@@H](OC)[C@H](O)C(=O)N[C@@H](OC)[C@@H]1C[C@@H](O)C(C)(C)[C@@H](C[C@H](O)[C@@H](C)C2Cc3c(C)c(O)cc(O)c3C(=O)O2)O1 (stereo partly shown) [compound 3]	–	–	–	–	–	346 ± 64	4950 ± 4870	495	614 ± 267	352 ± 12.1	–
C=C(C)C[C@H](OC)[C@H](O)C(=O)N[C@H](OC)[C@@H]1C[C@@H](O)C(C)(C)[C@@H](C[C@H](O)[C@@H](C)C2Cc3c(C)c(O)cc(O)c3C(=O)O2)O1 (stereo partly shown) [compound 4]	–	–	–	–	–	318 ± 182	2200 ± 1410	843	> 1000	763 ± 70	–
C=C(C)C[C@H](OC)[C@H](O)C(=O)N[C@@H](OC)[C@@H]1C[C@@H](O)C(C)(C)[C@@H](C[C@H](O)COC)O1 [compound 5]	–	–	–	–	–	641 ± 262	1650 ± 1060	578	> 1000	> 1000	–
C=C(C)C[C@H](OC)[C@H](O)C(=O)N[C@H](OC)[C@@H]1C[C@@H](O)C(C)(C)[C@@H](C[C@H](O)COC)O1 [compound 6]	–	–	–	–	–	> 10000	> 10000	> 10000	> 1000	> 1000	–
Cc1c(O)cc(O)c2c1CC([C@H](C)[C@@H](O)C[C@H]1O[C@H](C(N)=O)C[C@@H](O)C1(C)C)OC2=O (stereo partly shown) [compound 7]	–	–	–	–	–	> 10000	> 10000	> 10000	> 1000	> 1000	–
C=C1C[C@](OC)([C@H](O)C(=O)NC2OCO[C@H]3[C@@H]2O[C@H](C[C@H](O)CO)C(C)(C)[C@@H]3OC)O[C@H](C)[C@@H]1C (stereo partly shown) [compound 8]	–	–	–	–	–	238 ± 44	59 ± 32	64	2.52 ± 1.39	3.79 ± 0.04	–
C[C@@H]1C[C@@H]([C@H](O)CC2CC(=O)NC(=O)C2)C(=O)[C@@H](C)C1 [cycloheximide]	–	–	–	–	–	3150 ± 2350	3320 ± 434	2670	2290 ± 1520	3130 ± 764	–
C=C(C)C[C@H](OC)[C@H](O)C(=O)N[C@@H](OC)[C@@H]1C[C@H](O)C(C)(C)[C@@H](C[C@H](O)[C@@H](C)[C@H]2Cc3c(C)c(O)cc(O)c3C(=O)O2)O1 [epi-C(11)-Irciniastatin A]	0.4	85	0.9	38	34	–	–	–	–	–	IC50 [9]: 3 nM; Selectivity vs. IMR-90, HCT-116 [9]: 11
C11-Deoxyirciniastatin [compound 29]	–	–	–	–	–	–	–	–	–	–	IC50 [17]: 0.265 ± 0.008 nM; IC50 [18]: 0.149 ± 0.005 nM; IC50 [19]: 0.034 ± 0.004 nM; IC50 [20]: 0.055 ± 0.002 nM; IC50 [21]: 0.142 ± 0.007 nM; IC50 [22]: 0.076 ± 0.004 nM; IC50 [23]: 0.073 ± 0.006 nM; IC50 [24]: 0.16 ± 0.015 nM; IC50 [25]: 0.066 ± 0.004 nM
